Measurements reported in patent US7157453B2, “Urea substituted imidazoquinolines” (3M Innovation Properties Company, priority 1999, dated 2007).
Where a name gives a salt, the structure may show the parent alone.

Tests used:
interferon (α) = experiment: Cytokine Induction in Human Cells: interferon (α) by ELISA; format: cell-based; conditions: PBMC; human PBMCs, incubated 18 to 24 hours, lowest concentration found to induce interferon
Excerpt: (§1) An in vitro human blood cell system was used to assess cytokine induction by compounds of the invention. Activity is based on the measurement of interferon and tumor necrosis factor (α) (IFN and TNF, respectively) secreted into culture media as described by Testerman et. al. In “Cytokine Induction by the Immunomodulators Imiquimod and S-27609”, Journal of Leukocyte Biology, 58, 365–372 (September, 1995).
(§2) Whole blood is collected by venipuncture into EDTA vacutainer tubes from healthy human donors. Peripheral blood mononuclear cells (PBMCs) are separated from whole blood by density gradient centrifugation using Histopaque®-1077 (Sigma Chemicals, St. Louis, Mo.). The PBMCs are suspended at 3–4×10^6 cells/mL in RPMI 1640 medium containing 10% fetal bovine serum, 2 mM L-glutamine and 1% penicillin/streptomycin solution (RPMI complete). The PBMC suspension is added to 48 well flat bottom sterile tissue culture plates (Costar, Cambridge, Mass. or Becton Dickinson Labware, Lincoln Park, N.J.) containing an equal volume of RPMI complete media containing test compound.
(§3) The compounds are solubilized in dimethyl sulfoxide (DMSO). The DMSO concentration should not exceed a final concentration of 1% for addition to the culture wells.
(§4) The solution of test compound is added at 60 μM to the first well containing RPMI complete and serial (three fold or ten fold) dilutions are made. The PBMC suspension is then added to the wells in an equal volume, bringing the test compound concentrations to the desired range. The final concentration of PBMC suspension is 1.5–2×10^6 cells/mL. The plates are covered with sterile plastic lids, mixed gently and then incubated for 18 to 24 hours at 37° C. in a 5% carbon dioxide atmosphere.
(§5) Following incubation the plates are centrifuged for 5–10 minutes at 1000 rpm (˜200×g) at 4° C. The cell culture supernatant is removed with a sterile polypropylene pipet and transferred to sterile polypropylene tubes. Samples are maintained at −30 to −70° C. until analysis. The samples are analyzed for interferon (α) and tumor necrosis factor (α) by ELISA
Interferon (α) concentration is determined by ELISA using a Human Multi-Species kit from PBL Biomedical Laboratories, New Brunswick, N.J.
(§6) The table below lists the lowest concentration found to induce interferon and the lowest concentration found to induce tumor necrosis factor for each compound.

[1] = test system: tumor necrosis factor (α); experiment: Cytokine Induction in Human Cells: tumor necrosis factor (α) by ELISA; format: cell-based; conditions: PBMC; human PBMCs, incubated 18 to 24 hours, lowest concentration found to induce tumor necrosis factor
Excerpt: as §1, §2, §3, §4, §5
Tumor necrosis factor (α) (TNF) concentration is determined using ELISA kits available from Genzyme, Cambridge, Mass.; R&D Systems, Minneapolis, Minn.; or Pharmingen, San Diego, Calif.
as §6

melting point | SMILES | minimal effective concentration (interferon (α)) | minimal effective concentration [1]
159 to 160 °C | CCCCNC(=O)NCCCn1c(CCOC)nc2c(N)nc3ccccc3c21 [Example 162, N-{3-[4-amino-2-(2-methoxyethyl)-1H-imidazo[4,5-c]quinolin-1-yl]propyl}-N′-butylurea] | 0.01 µM | 0.04 µM
171 to 173 °C | CC(C)(C)OC(=O)NCCCCn1cnc2c(N)nc3ccccc3c21 [Example 2] | 0.37 µM | 3.33 µM
71.5 to 72.1 °C | Nc1nc2ccccc2c2c1nc(CCCOc1ccccc1)n2CCCCNC(=O)N1CCOCC1 [Example 171, N-{4-[4-amino-2-(3-phenoxypropyl)-1H-imidazo[4,5-c]quinolin-1-yl]butyl}morpholine-4-carboxamide] | > 30 µM | 10 µM
89 to 92 °C | Nc1nc2ccccc2c2c1ncn2CCCCNC(=O)Oc1cccc2ccccc12 | – | –
124 to 126 °C | CCOCc1nc2c(N)nc3ccccc3c2n1CCCNC(=O)OC(C)(C)C [Example 175, tert-butyl 3-[4-amino-2-(ethoxymethyl)-1H-imidazo[4,5-c]quinolin-1-yl]propylcarbamate] | 0.04 µM | 0.37 µM
179.7 to 181.4 °C | CCc1nc2c(N)nc3ccccc3c2n1CCCCNC(=O)Nc1ccccc1 [Example 143, N-[4-(4-amino-2-ethyl-1H-imidazo[4,5-c]quinolin-1-yl)butyl]-N′-phenylurea] | 0.01 µM | 0.37 µM
201 to 202 °C | CCOCc1nc2c(N)nc3ccccc3c2n1CCNC(=O)OC(C)(C)C [Example 177, tert-butyl 2-[4-amino-2-(ethoxymethyl)-1H-imidazo[4,5-c]quinolin-1-yl]ethylcarbamate] | 0.04 µM | 0.37 µM
185 to 187 °C | CCCCc1nc2c(N)nc3ccccc3c2n1CCCCNC(=O)Nc1ccccc1 [Example 164, N-[4-(4-amino-2-butyl-1H-imidazo[4,5-c]quinolin-1-yl)butyl]-N′-phenylurea] | 0.04 µM | 0.12 µM
87 to 88 °C | CN(C(=O)NCCCCn1cnc2c(N)nc3ccccc3c21)c1ccccc1 [Example 6, N^1-[4-(4-Amino-1H-imidazo[4,5-c]quinolin-1-yl)butyl]-N-methyl-N-phenylurea] | 0.37 µM | > 30 µM
179 to 180 °C | COCCc1nc2c(N)nc3ccccc3c2n1CCCNC(=O)NC1CCCCC1 [Example 158, N-{3-[4-amino-2-(2-methoxyethyl)-1H-imidazo[4,5-c]quinolin-1-yl]propyl}-N′-cyclohexylurea] | 0.01 µM | 1.11 µM
112 to 115 °C | Cc1nc2c(N)nc3ccccc3c2n1CCCNC(=O)OC(C)(C)C [Example 176, tert-butyl 3-(4-amino-2-methyl-1H-imidazo[4,5-c]quinolin-1-yl)propylcarbamate] | 0.12 µM | 1.11 µM
182.8 to 184 °C | CCCc1nc2c(N)nc3ccccc3c2n1CCCCNC(=O)Nc1ccccc1 [Example 160, N-[4-(4-amino-2-propyl-1H-imidazo[4,5-c]quinolin-1-yl)butyl]-N′-phenylurea] | 0.12 µM | 1.11 µM
182 to 183 °C | CC(C)(C)OC(=O)NCCCCn1c(-c2ccccc2)nc2c(N)nc3ccccc3c21 [Example 12, tert-Butyl N-[4-(4-Amino-2-phenyl-1H-imidazo[4,5-c]quinolin-1-1)butyl]carbamate] | – | –
226 to 228 °C | Cc1nc2c(N)nc3ccccc3c2n1CCCNC(=O)N1CCOCC1 [Example 167, N-[3-(4-amino-2-methyl-1H-imidazo[4,5-c]quinolin-1-yl)propyl]morpholine-4-carboxamide] | – | –
153 to 155 °C | CCCCc1nc2c(N)nc3ccccc3c2n1CCCCCCCCNC(=O)Nc1ccccc1 [Example 154, N-[8-(4-amino-2-butyl-1H-imidazo[4,5-c]quinolin-1-yl)octyl]-N′-phenylurea] | 0.37 µM | 1.11 µM
118 to 120 °C | Nc1nc2ccccc2c2c1nc(-c1ccccc1)n2CCCCNC(=S)Nc1cccnc1 [Example 14, N-[4-(4-Amino-2-phenyl-1H-imidazo[4,5-c]quinolin-1-yl)butyl]-N′-(3-pyridyl)thiourea] | – | –

melting point | SMILES | minimal effective concentration (interferon (α)) | minimal effective concentration [1]
171.5 to 172.5 °C | Cc1nc2c(N)nc3ccccc3c2n1CCCCNC(=O)Nc1ccccc1 [Example 144, N-[4-(4-amino-2-methyl-1H-imidazo[4,5-c]quinolin-1-yl)butyl]-N′-phenylurea] | 0.04 µM | 0.37 µM
196 °C (dec.) | COc1ccc(Cc2nc3c(N)nc4ccccc4c3n2CCCCNC(N)=O)cc1 [Example 10, N-{4-[4-Amino-2-(4-methoxybenzyl)-1H-imidazo[4,5-c]quinolin-1-yl]butyl}urea] | – | –
159 to 160.4 °C | CCCCCc1nc2c(N)nc3ccccc3c2n1CCCCNC(=O)Nc1ccccc1 [Example 159, N-[4(4-amino-2-pentyl-1H-imidazo[4,5-c]quinolin-1-yl)butyl]-N′-phenylurea] | 1.11 µM | 10 µM
173 to 175 °C | COCCc1nc2c(N)nc3ccccc3c2n1CCNC(=O)OC(C)(C)C [Example 178, tert-butyl 2-[4-amino-2-(methoxyethyl)-1H-imidazo[4,5-c]quinolin-1-yl]ethylcarbamate] | 0.12 µM | 1.11 µM
113 to 116 °C | CCCNC(=S)NCCCCn1c(-c2ccccc2)nc2c(N)nc3ccccc3c21 [Example 13, N-[4-(4-Amino-2-phenyl-1H-imidazo[4,5-c]quinolin-1-yl)butyl]-N′-propylthiourea] | – | –
145 to 150 °C | Nc1nc2ccccc2c2c1nc(-c1ccccc1)n2CCCCNC(=O)Nc1ccc(F)cc1 [Example 15, N-[4-(4-amino-2-phenyl-1H-imidazo[4,5-c]quinolin-1-yl)butyl]-N′-(4-fluorophenyl)urea] | – | –
171.8 to 173.2 °C | COCCc1nc2c(N)nc3c(c2n1CCCNC(=O)N1CCOCC1)CCCC3 [Example 168, N-{3-[4-amino-2-(2-methoxyethyl)-6,7,8,9-tetrahydro-1H-imidazo[4,5-c]quinolin-1-yl]propyl}morpholine-4-carboxamide] | – | –
198.8 to 199.9 °C | Nc1nc2ccccc2c2c1nc(CCCOc1ccccc1)n2CCCNC(=O)N1CCOCC1 [Example 166, N-{3-[4-amino-2-(3-phenoxypropyl)-1H-imidazo[4,5-c]quinolin-1-yl]propyl}morpholine-4-carboxamide] | – | –
154 to 155 °C | Nc1nc2ccccc2c2c1ncn2CCCCNC(=O)Oc1ccc2ccccc2c1 | – | –
126.8 to 127.5 °C | CCCCCc1nc2c(N)nc3c(c2n1CCCCNC(=O)N1CCOCC1)CCCC3 (as salt: hydrochloride) [Example 172, N-[4-(4-amino-2-pentyl-6,7,8,9-tetrahydro-1H-imidazo[4,5-c]quinolin-1-yl)butyl]morpholine-4-carboxamide hydrochloride] | – | –
– | COCCc1nc2c(N)nc3ccccc3c2n1CCCCNC(=O)NC12CC3CC(CC(C3)C1)C2 [Example 100] | 0.001 µM | 10 µM
– | COCCc1nc2c(N)nc3ccccc3c2n1CCCCNC(=S)Nc1cccnc1 [Example 125] | 0.0001 µM | 10 µM
– | COCCc1nc2c(N)nc3ccccc3c2n1CCCCNC(=O)Nc1ccccc1Br [Example 119] | 10 µM | 10 µM
– | CCCCc1nc2c(N)nc3ccccc3c2n1CCCNC(=O)Nc1ccccc1 [Example 146, N-[3-(4-amino-2-butyl-1H-imidazo[4,5-c]quinolin-1-yl)propyl]-N′-phenylurea] | 0.01 µM | 0.12 µM
– | CC(C)NC(=O)NCCCCn1cnc2c(N)nc3ccccc3c21 [Example 19] | 1.11 µM | 30 µM
